US20120157471A1, “BENZIMIDAZOLE DERIVATIVES” (PFIZER INC., priority 2009, published 2012)

What was measured:
[1] = molecular target: T1, human Smo (amino acids 181-787) (Homo sapiens, UniProt Q99835); assay: Smo radioligand competition binding assay (displacement of 3H-PF-03451358 from HEK293 membranes); conditions: for inhibition at 0.05 µM: 0.05 μM test compound, displacement of 3H-PF-03451358, read-out: SMO % inh. @ 0.05 μM; for IC50: radioligand competition binding
T1 construct: expressed in transfected cells; membrane preparation
Procedure: Membranes were prepared from a stable cell line created in HEK293FlpIn-TetR cells (Invitrogen) using FIp recombinase-mediated insertion of the pSecTag-FRT/V5-His vector containing a cDNA encoding amino acids 181-787 of human Smo fused to the murine lgk leader sequence to produce a cell surface expressed Smo 181-781 protein. Hygromycin-resistant clones were obtained and stained for LacZ expression (no expression indicates a correct knock-in of my fusion cDNA). LacZ-negative cells were analyzed for binding tritiated Smo antagonist PF-03451358. For membrane preparation, the HEK293 cells expressing Smo 181-781 were grown to 90% confluence in nine to fifteen 245 mm×245 mm×22 mm dishes, washed with Dulbecco's PBS (15 ml per dish) and harvested via scraping in 10 ml of DPBS. The cells were collected and centrifuged at 1500 rpm (400×g) for 10 min at 4° C. The cell pellets were re-suspended in 40 ml of cold DPBS and washed by centrifugation at 2300 rpm (950×g max) for 10 minutes at 4° C. The supernatant was aspirated and the cell pellet was snap frozen in a methanol/dry ice bath and stored at −70° C. For membrane preparation, 15 ml of Membrane Preparation Buffer (50 mM Tris-HCl pH 7.5, 250 mM sucrose with Roche complete protease cocktail tablets) is added to the tube containing the cell pellet, then cells are rapidly thawed, and homogenized using an Ultra-Turrax T8 (IKA Labortechnik) set on “6” for 15 seconds for 5-6 times in icy water bath. This homogenate was diluted up to 50 ml using Membrane Preparation Buffer and centrifuged at 35,000 rpm in a Beckman Ti45 rotor (140,000×g) for 35 minutes at 4° C. followed by aspiration of the supernatant and re-suspension of the pellet in 5 ml of Assay Buffer (50 mM Tris-HCl pH 7.5, 100 mM NaCl, 25 mM MgCl2, 1 mM EDTA, and 0.1% protease free bovine serum albumin). The re-suspended pellet is then homogenized in a glass tissue grinder. The re-suspended membranes are aliquoted (0.5 ml aliquots), snap frozen and stored at −70° C. Total protein in the membrane preparation is determined using the Pierce BCA protein assay (Pierce Chemical).
For the binding competition assay, 100 μl of Assay Buffer is added to all the wells of a 96 well GF/B filter plate (Millipore MultiScreen-HTS-FB cat# MSFBN6B50) for 10 minutes to pre-wet the filter prior to evacuation of the buffer (8 inches Hg for 8 seconds). To the pre-wet wells is added: 20 μl of Assay Buffer, 10 μl diluted test agent, 20 μl of ^3H-PF-3451358 (15 nM stock solution), and 50 μl of membrane preparation (40 μg total protein per well). The plates are sealed and mixed at room temperature for 5 min, incubated at room temperature for 2 hours, then washed 5 times with 100 μl/each of wash buffer and vacuum dried for 8 seconds at 8 inch Hg. The plate is then dried for one hour in a 60° C. oven prior to the addition of 45 μl of Microscint 20 (Packard, #6013621) to each well and incubation at RT for 30 minutes to 1 hour. The plate is counted in a TopCount scintillation counter (Perkin Elmer).
Data analysis uses Excel for % Inhibition and Graphpad Prism for IC50 calculation. Total binding (TB, in the absence of inhibitors)=average of ^3H PF-03451358 3 nM+SMO membrane (40 μg/wells (approx 5000-7000 CPM). Non-specific binding (NSB)=average of ^3H PF-03451358 (3 nM)+cold PF-03451358 (30 μM)+SMO membrane (approx 600-1200 CPM). Specific binding (SB)=(total binding−non-specific binding). % Inhibition=[1−(compound Specific binding/control Specific binding)]×100%. IC50 is calculated by fitting the data to the four parameter sigmoidal dose-response curve (variable slope) Y=Bottom+(Top-Bottom)/(1+10̂((LogEC50−X)*HillSlope)). X is the logarithm of the inhibitor concentration. Y is the response; Y starts at Bottom and goes to Top with a sigmoid shape.

Gli-Luc/MEF cells (Smo) = assay: Gli-Luc/MEF assay (Shh-stimulated luciferase reporter under the Gli response element); format: cell-based, mouse; conditions: Mus musculus, MEF, 48 h
Procedure: The Gli-Luc/MEF cells obtained from Gli-Luc transgenic mice (Pfizer CoE, Genetically Modified Mice) contain a luciferase reporter gene under the control of the Gli response element. Luciferase activity stimulated with Sonic hedgehog ligand was inhibited by Smo inhibitors, and IC50 was subsequently calculated.
Plates were incubated at 37° C. and 5% CO2 overnight. On day two, cells were dosed with test compounds at a final concentration ranging from […] to 50 μM at a 3-time series dilution. Immediately after dosing cells with compounds, recombinant mouse sonic hedgehog (Shh, R&D Systems 464-SH) was added to a final concentration of 2 μg/mL. The cells were incubated with compounds and Shh for 48 hours at 37° C. and 5% CO2. Luciferase assays were conducted on Day 4 using the Bright-Glo Luciferase assay system (Promega E2620) according to Promega's protocol. Briefly, Bright-Glo luciferase reagent was made up and 25 uL were added to each well of the 384-well plate containing media. Plates were kept at room temperature for 5 minutes, and then read on an Envision Luminescence plate reader (Perkin-Elmer). IC50 of the inhibition was calculated by using GraphPad Prism.

T1 sequence (Q99835 181-787): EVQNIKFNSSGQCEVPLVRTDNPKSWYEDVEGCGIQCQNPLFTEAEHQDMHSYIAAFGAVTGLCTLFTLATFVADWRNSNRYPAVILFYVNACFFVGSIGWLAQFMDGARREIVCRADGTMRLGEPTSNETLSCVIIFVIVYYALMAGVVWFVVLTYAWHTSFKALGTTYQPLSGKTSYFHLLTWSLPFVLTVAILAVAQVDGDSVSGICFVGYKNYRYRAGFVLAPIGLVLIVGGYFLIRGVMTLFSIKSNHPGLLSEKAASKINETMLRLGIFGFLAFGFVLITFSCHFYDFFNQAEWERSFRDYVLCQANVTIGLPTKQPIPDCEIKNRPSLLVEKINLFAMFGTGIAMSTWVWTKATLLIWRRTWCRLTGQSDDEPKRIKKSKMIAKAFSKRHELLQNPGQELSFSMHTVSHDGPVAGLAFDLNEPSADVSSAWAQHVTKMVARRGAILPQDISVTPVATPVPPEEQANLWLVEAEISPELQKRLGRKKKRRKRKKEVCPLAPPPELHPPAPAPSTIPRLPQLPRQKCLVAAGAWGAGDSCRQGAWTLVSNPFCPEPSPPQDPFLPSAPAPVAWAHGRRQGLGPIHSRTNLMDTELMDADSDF

Row | Compound | inhibition at 0.05 µM [1] [%] | IC50 (Gli-Luc/MEF cells (Smo)) [µM] | IC50 [1] [µM]
1 | Cn1c(-c2cc(N3C[C@@H](O)[C@@H](O)C3)ncc2Cl)nc2ccccc21 [Example A-129, (3R,4S)-1-[5-chloro-4-(1-methyl-1H-benzimidazol-2-yl)pyridin-2-yl]pyrrolidine-3,4-diol] | 53 | 0.105 | –
2 | CCS(=O)(=O)NC1CCN(c2cc(-c3nc4ccccc4n3C)c(F)cn2)CC1 [Example D-9, N-{1-[5-fluoro-4-(1-methyl-1H-benzimidazol-2-yl)pyridin-2-yl]piperidin-4-yl}ethanesulfonamide] | 99 | 0.0039 | 0.005
3 | COCc1nnc2n1CCN(c1cc(-c3nc4ccccc4n3C)c(Cl)cn1)CC2 [Example A-93, 7-[5-chloro-4-(1-methyl-1H-benzimidazol-2-yl)pyridin-2-yl]-3-(methoxymethyl)-6,7,8,9-tetrahydro-5H-[1,2,4]triazolo[4,3-d][1,4]diazepine] | 87 | 0.031 | 0.053
4 | Cn1c(-c2cccc(N3CCN(S(C)(=O)=O)CC3)n2)nc2ccccc21 [Example B-7, 1-methyl-2-{6-[4-(methylsulfonyl)piperazin-1-yl]pyridin-2-yl}-1H-benzimidazole] | 78 | 0.189 | 0.097
5 | CNC(=O)N1CCCN(c2cc(-c3nc4ccccc4n3C)ccn2)CC1 [Example A-155, N-methyl-4-[4-(1-methyl-1H-benzimidazol-2-yl)pyridin-2-yl]-1,4-diazepane-1-carboxamide] | 97 | 0.012 | 0.022
6 | Cn1c(-c2cc(N3CCC(O)CC3)ncc2Cl)nc2ccccc21 [Example A-25, 1-[5-chloro-4-(1-methyl-1H-benzimidazol-2-yl)pyridin-2-yl]piperidin-4-ol] | 91 | 0.007 | 0.008
7 | Cn1c(-c2cc(N3CCN4C[C@H](O)CC4C3)ncc2Cl)nc2ccccc21 (stereo in doubt) [Example A-60, (7R,8aS)-2-[5-chloro-4-(1-methyl-1H-benzimidazol-2-yl)pyridin-2-yl]octahydropyrrolo[1,2-a]pyrazin-7-ol] | 96 | 0.022 | 0.027
8 | Cn1c(-c2cc(N3[C@@H]4CC[C@H]3C[C@@H](NS(C)(=O)=O)C4)ncc2Cl)nc2ccccc21 [Example A-193, N-{(3-endo)-8-[5-chloro-4-(1-methyl-1H-benzimidazol-2-yl)pyridin-2-yl]-8-azabicyclo[3.2.1]oct-3-yl}methanesulfonamide] | 103 | 0.0025 | 0.013
9 | Cn1c(-c2cc(N3CCC(F)(F)CC3)ncc2Cl)nc2ccccc21 [Example A-210, 2-[5-chloro-2-(4,4-difluoropiperidin-1-yl)pyridin-4-yl]-1-methyl-1H-benzimidazole] | 87 | 0.022 | 0.057
10 | Cn1c(-c2nc(N3CCN(C=O)CC3)ccc2Cl)nc2ccccc21 [Example B-5, 4-[5-chloro-6-(1-methyl-1H-benzimidazol-2-yl)pyridin-2-yl]piperazine-1-carbaldehyde] | 92 | 0.027 | 0.027
11 | CC(=O)N1CCN(c2cc(-c3nc4ccccc4n3C)ccn2)CC1 [Example A-29, 2-[2-(4-acetylpiperazin-1-yl)pyridin-4-yl]-1-methyl-1H-benzimidazole] | 78 | 0.11 | 0.061
12 | CC(=O)NC1CCN(c2cc(-c3nc4ccccc4n3C)c(F)cn2)CC1 [Example D-14, N-{1-[5-fluoro-4-(1-methyl-1H-benzimidazol-2-yl)pyridin-2-yl]piperidin-4-yl}acetamide] | 97 | 0.0172 | 0.019
13 | Cn1c(-c2nc(N3CCN(C(=O)CCO)CC3)ncc2Cl)nc2ccccc21 [Example C-17, 3-{4-[5-chloro-4-(1-methyl-1H-benzimidazol-2-yl)pyrimidin-2-yl]piperazin-1-yl}-3-oxopropan-1-ol] | 98 | 0.0172 | –
